Data set [1] has as its target T1, Replicase polyprotein 1ab (Severe acute respiratory syndrome coronavirus 2, UniProt P0DTD1).
The target of data set [2] is T1, Replicase polyprotein 1ab. The source holds these as a separate data set.
The target in another data set is Replicase polyprotein 1a (Severe acute respiratory syndrome-related coronavirus, UniProt P0C6U8).
For another data set, the target named is Procathepsin L (Homo sapiens, UniProt P07711).
Data set [3] addresses T1, Replicase polyprotein 1ab. The source holds these as a separate data set.
Data set [4] deals with Replicase polyprotein 1ab (Severe acute respiratory syndrome coronavirus 2) (UniProt P0DTD1). To be noted: time 70.0 min.
The test system of the next data set is Vero. Briefly: Cytotoxicity against green monkey Vero cells. In kind it is toxicity, cell-based. To be noted: chlorocebus sabaeus.
Data set [5] deals with Replicase polyprotein 1ab (Severe acute respiratory syndrome coronavirus 2) (UniProt P0DTD1). The conditions noted are these: dose 40.0 µM, time 30.0 min.
Another data set has as its system SARS-CoV-2. The data set is described as follows: microbe, parasite or virus in culture. To be noted: Severe acute respiratory syndrome coronavirus 2, Vero, 16 h.

A value given as a limit tells only on which side of the number the result lay.

Results on seven molecules are retold here after ChEMBL document CHEMBL5335774 (Eur J Med Chem, 2023).

Sequence of Procathepsin L (P07711 whole entry): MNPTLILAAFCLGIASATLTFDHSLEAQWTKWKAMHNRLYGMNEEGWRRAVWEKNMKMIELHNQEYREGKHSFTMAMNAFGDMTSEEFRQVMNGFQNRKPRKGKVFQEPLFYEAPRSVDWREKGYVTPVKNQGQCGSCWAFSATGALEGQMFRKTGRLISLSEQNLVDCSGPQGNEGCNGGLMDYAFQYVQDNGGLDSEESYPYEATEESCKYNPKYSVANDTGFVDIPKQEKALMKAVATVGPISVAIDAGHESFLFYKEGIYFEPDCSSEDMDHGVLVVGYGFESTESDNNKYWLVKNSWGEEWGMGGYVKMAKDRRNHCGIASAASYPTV

`Cc1cccc2nc(CSC(=S)NCc3cccnc3)cn12`: the IC50 in data set [1] (read-out: IC50) is 21 nM; in data set [2] (read-out: IC50) it was 1460 nM; in data set [2] (read-out: pIC50 (converted)), 1410 nM; against Replicase polyprotein 1a, 383 nM; at Procathepsin L (read-out: IC50), 122000 nM; in data set [3] it was 8 nM. This molecule showed an IC50 in the data set with SARS-CoV-2 of 1060 nM. The inhibition in data set [4] is 80%. For the same molecule, the Activity result with Vero is “Non-Toxic”. Further, the ΔTm in [5] came out at 14.2 °C.

Consider `CC(C)C[C@H](NC(=O)OCc1ccccc1)C(=O)N[C@@H](CC1CCNC1=O)C(O)S(=O)(=O)O` (some centres not stated), for which the IC50 at Procathepsin L (read-out: pIC50 (converted)) is 0.692 nM.

With `Cc1cccc2nc(CNC(=S)NCc3cccnc3)cn12`, the IC50 in data set [1] (read-out: IC50) was 35000 nM; in data set [2] (read-out: IC50), over 100000 nM. In data set [2], the negative-log IC50 (pIC50) is listed as under 4.

Take `S=C(NCc1cccnc1)OCc1ccccc1`: the IC50 in data set [1] (read-out: IC50), in [1] (read-out: pIC50 (converted)) and in [2] (read-out: IC50) was over 100000 nM each time. In [2], the negative-log IC50 (pIC50) is under 4.

For the molecule `S=C(NCc1cccnc1)SCc1ccccc1`, the IC50 is 23 nM in data set [1] (read-out: IC50) and 9360 nM in data set [2] (read-out: IC50).

In the case of `S=C([S-])NCc1cccnc1.[K+]`, the IC50 in [1] (read-out: pIC50 (converted)) was 26.9 nM; in data set [2] (read-out: IC50), 1360 nM; at Replicase polyprotein 1a it was 165 nM; at Procathepsin L (read-out: IC50), 42800 nM. In addition, the Activity result in the data set with Vero is recorded as “Toxic”.

With `CCSC(=S)NCc1cccnc1`, the IC50 was determined as 178 nM in data set [1] (read-out: IC50) and 22400 nM in data set [2] (read-out: IC50).
